# Numbered stars: 1 amine (or outer) side, 2 acyl side, 3 side chain; on linkers, the order of the positions; unused ones are H or OH. Side chains are listed from the residue outwards. Peptide text beside a SMILES is read from it. * marks the point of attachment. C18 diacid = O=C(O)CCCCCCCCCCCCCCCCC(=O)*; C16 diacid = O=C(O)CCCCCCCCCCCCCCC(=O)*; γGlu = O=C(O)[C@H](CCC(=O)[*:2])N[*:1]; AEEA = NCCOCCOCC(=O)O
# Molecular target: T1, glucagon receptor (Homo sapiens, UniProt P47871)
# T1 construct: expressed in transfected cells
# Test: Assay (I) Glucagon activity (cAMP biosensor, FLIPR)
# Assay type: cell-based
# T1 sequence (P47871 26-477): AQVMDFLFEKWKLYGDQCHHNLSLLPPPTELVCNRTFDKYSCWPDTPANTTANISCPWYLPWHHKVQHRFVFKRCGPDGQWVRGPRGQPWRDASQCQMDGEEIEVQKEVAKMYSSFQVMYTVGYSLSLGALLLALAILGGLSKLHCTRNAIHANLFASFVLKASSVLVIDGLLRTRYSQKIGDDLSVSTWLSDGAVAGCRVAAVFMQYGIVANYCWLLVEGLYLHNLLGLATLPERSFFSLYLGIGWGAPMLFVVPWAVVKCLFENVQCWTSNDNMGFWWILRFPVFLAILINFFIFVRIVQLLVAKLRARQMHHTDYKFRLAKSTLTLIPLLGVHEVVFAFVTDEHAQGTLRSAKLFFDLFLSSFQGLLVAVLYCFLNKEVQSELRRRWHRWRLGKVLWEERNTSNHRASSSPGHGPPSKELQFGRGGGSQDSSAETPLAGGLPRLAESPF
row,Compound,EC50
1,"CC(C)C[C@H](NC(=O)[C@H](Cc1ccc(O)cc1)NC(=O)[C@H](CCCCN)NC(=O)[C@H](CO)NC(=O)[C@H](Cc1ccc(O)cc1)NC(=O)[C@H](CC(=O)O)NC(=O)[C@H](CO)NC(=O)[C@@H](NC(=O)[C@H](Cc1ccccc1)NC(=O)[C@@H](NC(=O)CNC(=O)[C@H](Cc1c[nH]cn1)NC(=O)[C@H](CO)NC(=O)[C@@H](N)Cc1c[nH]cn1)[C@@H](C)O)[C@@H](C)O)C(=O)N[C@@H](CC(=O)O)C(=O)N[C@@H](CO)C(=O)N[C@@H](CCCNC(=N)N)C(=O)N[C@@H](CCCNC(=N)N)C(=O)N[C@@H](C)C(=O)N[C@@H](CCC(N)=O)C(=O)N[C@@H](CC(=O)O)C(=O)N[C@@H](Cc1ccccc1)C(=O)N[C@H](C(=O)N[C@@H](CCCCNC(=O)CC[C@H](NC(=O)CC[C@H](NC(=O)COCCOCCNC(=O)COCCOCCNC(=O)CC[C@H](NC(=O)CCCCCCCCCCCCCCCCC(=O)O)C(=O)O)C(=O)O)C(=O)O)C(=O)N[C@@H](Cc1c[nH]c2ccccc12)C(=O)N[C@@H](CC(C)C)C(=O)N[C@@H](CC(C)C)C(=O)N[C@@H](CO)C(=O)N[C@H](C(=O)O)[C@@H](C)O)C(C)C [Example 2, N^ε24-[(4S)-4-carboxy-4-[[(4S)-4-carboxy-4-[[2-[2-[2-[[2-[2-[2-[[(4S)-4-carboxy-4-(17-carboxyheptadecanoylamino)butanoyl]amino]ethoxy]ethoxy]acetyl]amino]ethoxy]ethoxy]acetyl]amino]butanoyl]amino]butanoyl]-[His^3,Lys^24,Leu^27,Ser^28]-Glucagon]",0.129 nM
2,"CC(C)C[C@H](NC(=O)[C@H](Cc1c[nH]c2ccccc12)NC(=O)[C@H](CCCCNC(=O)CC[C@H](NC(=O)CC[C@H](NC(=O)COCCOCCNC(=O)COCCOCCNC(=O)CC[C@H](NC(=O)CCCCCCCCCCCCCCCCC(=O)O)C(=O)O)C(=O)O)C(=O)O)NC(=O)[C@@H](NC(=O)[C@H](Cc1ccccc1)NC(=O)[C@H](CC(=O)O)NC(=O)[C@H](CCC(N)=O)NC(=O)[C@H](C)NC(=O)[C@H](CCCNC(=N)N)NC(=O)[C@H](CCCNC(=N)N)NC(=O)[C@@H](NC(=O)[C@H](CC(=O)O)NC(=O)[C@H](CC(C)C)NC(=O)[C@H](Cc1ccc(O)cc1)NC(=O)[C@H](CCCCN)NC(=O)[C@H](CO)NC(=O)[C@H](Cc1ccc(O)cc1)NC(=O)[C@H](CC(=O)O)NC(=O)[C@H](CO)NC(=O)[C@@H](NC(=O)[C@H](Cc1ccccc1)NC(=O)[C@@H](NC(=O)CNC(=O)[C@H](CCC(N)=O)NC(=O)[C@H](CO)NC(=O)[C@@H](N)Cc1c[nH]cn1)[C@@H](C)O)[C@@H](C)O)C(C)C)C(C)C)C(=O)N[C@@H](CC(C)C)C(=O)N[C@@H](CO)C(=O)N[C@H](C(=O)O)[C@@H](C)O [Example 30, N^ε24-[(4S)-4-carboxy-4-[[(4S)-4-carboxy-4-[[2-[2-[2-[[2-[2-[2-[[(4S)-4-carboxy-4-(17-carboxyheptadecanoylamino)butanoyl]amino]ethoxy]ethoxy]acetyl]amino]ethoxy]ethoxy]acetyl]amino]butanoyl]amino]butanoyl]-[Val16,Lys24,Leu27,Ser28]-Glucagon]",0.307 nM
3,"CC(C)C[C@H](NC(=O)[C@H](CC(=O)O)NC(=O)[C@H](CC(C)C)NC(=O)[C@H](Cc1ccc(O)cc1)NC(=O)[C@H](CCCNC(=N)N)NC(=O)[C@H](CO)NC(=O)[C@H](Cc1ccc(O)cc1)NC(=O)[C@H](CC(=O)O)NC(=O)[C@H](CO)NC(=O)[C@@H](NC(=O)[C@H](Cc1ccccc1)NC(=O)[C@@H](NC(=O)CNC(=O)[C@H](CCC(N)=O)NC(=O)[C@H](CO)NC(=O)[C@@H](N)Cc1c[nH]cn1)[C@@H](C)O)[C@@H](C)O)C(=O)N[C@@H](CCCNC(=N)N)C(=O)N[C@@H](CCCNC(=N)N)C(=O)N[C@@H](C)C(=O)N[C@@H](CCC(N)=O)C(=O)N[C@@H](CC(=O)O)C(=O)N[C@@H](Cc1ccccc1)C(=O)N[C@H](C(=O)N[C@@H](CCCCNC(=O)CC[C@H](NC(=O)CC[C@H](NC(=O)CC[C@H](NC(=O)CCCCCCCCCCCCCCC(=O)O)C(=O)O)C(=O)O)C(=O)O)C(=O)N[C@@H](Cc1c[nH]c2ccccc12)C(=O)N[C@@H](CC(C)C)C(=O)N[C@@H](CC(C)C)C(=O)N[C@@H](CO)C(=O)N[C@H](C(=O)O)[C@@H](C)O)C(C)C [Example 91, N^ε24-[(4S)-4-carboxy-4-[[(4S)-4-carboxy-4-[[(4S)-4-carboxy-4-(15-carboxypentadecanoylamino)butanoyl]amino]butanoyl]amino]butanoyl]-[Arg12,Leu16,Lys24,Leu27,Ser28]-Glucagon] (H-HSQGTFTSDYSRYLDLRRAQDFVK([γGlu-γGlu-γGlu-C16 diacid])WLLST-OH)",0.027 nM
4,"CC(C)C[C@H](NC(=O)[C@H](Cc1c[nH]c2ccccc12)NC(=O)[C@H](CCCCNC(=O)CC[C@H](NC(=O)CC[C@H](NC(=O)COCCOCCNC(=O)COCCOCCNC(=O)CC[C@H](NC(=O)CCCCCCCCCCCCCCC(=O)O)C(=O)O)C(=O)O)C(=O)O)NC(=O)[C@@H](NC(=O)[C@H](Cc1ccccc1)NC(=O)[C@H](CC(=O)O)NC(=O)[C@H](CCC(N)=O)NC(=O)[C@H](C)NC(=O)[C@H](CCCNC(=N)N)NC(=O)[C@H](CCCNC(=N)N)NC(=O)[C@@H](NC(=O)[C@H](CC(=O)O)NC(=O)[C@H](CC(C)C)NC(=O)[C@H](Cc1ccc(O)cc1)NC(=O)[C@H](CCCNC(=N)N)NC(=O)[C@H](CO)NC(=O)[C@H](Cc1ccc(O)cc1)NC(=O)[C@H](CC(=O)O)NC(=O)[C@H](CO)NC(=O)[C@@H](NC(=O)[C@H](Cc1ccccc1)NC(=O)[C@@H](NC(=O)CNC(=O)[C@H](CCC(N)=O)NC(=O)[C@H](CO)NC(=O)[C@@H](N)Cc1c[nH]cn1)[C@@H](C)O)[C@@H](C)O)[C@@H](C)O)C(C)C)C(=O)N[C@@H](CC(C)C)C(=O)N[C@@H](CO)C(=O)N[C@H](C(=O)O)[C@@H](C)O [Example 82, N^ε24-[(4S)-4-carboxy-4-[[(4S)-4-carboxy-4-[[2-[2-[2-[[2-[2-[2-[[(4S)-4-carboxy-4-(15-carboxypentadecanoylamino)butanoyl]amino]ethoxy]ethoxy]acetyl]amino]ethoxy]ethoxy]acetyl]amino]butanoyl]amino]butanoyl]-[Arg12,Thr16,Lys24,Leu27,Ser28]-Glucagon] (H-HSQGTFTSDYSRYLDTRRAQDFVK([γGlu-γGlu-AEEA-AEEA-γGlu-C16 diacid])WLLST-OH)",0.025 nM
5,"CC(C)C[C@H](NC(=O)[C@H](CC(=O)O)NC(=O)[C@H](CC(C)C)NC(=O)[C@H](Cc1ccc(O)cc1)NC(=O)[C@H](CCCNC(=N)N)NC(=O)[C@H](CO)NC(=O)[C@H](Cc1ccc(O)cc1)NC(=O)[C@H](CC(=O)O)NC(=O)[C@H](CO)NC(=O)[C@@H](NC(=O)[C@H](Cc1ccccc1)NC(=O)[C@@H](NC(=O)CNC(=O)[C@H](CCC(N)=O)NC(=O)[C@H](CO)NC(=O)[C@@H](N)Cc1c[nH]cn1)[C@@H](C)O)[C@@H](C)O)C(=O)N[C@@H](CCCNC(=N)N)C(=O)N[C@@H](CCCNC(=N)N)C(=O)N[C@@H](C)C(=O)N[C@@H](CCC(N)=O)C(=O)N[C@@H](CCC(=O)O)C(=O)N[C@@H](Cc1ccccc1)C(=O)N[C@H](C(=O)N[C@@H](CCCCNC(=O)CC[C@H](NC(=O)CC[C@H](NC(=O)COCCOCCNC(=O)COCCOCCNC(=O)CC[C@H](NC(=O)CCCCCCCCCCCCCCCCC(=O)O)C(=O)O)C(=O)O)C(=O)O)C(=O)N[C@@H](Cc1c[nH]c2ccccc12)C(=O)N[C@@H](CC(C)C)C(=O)N[C@@H](CC(C)C)C(=O)N[C@@H](CO)C(=O)N[C@H](C(=O)O)[C@@H](C)O)C(C)C [Example 46, N^ε24-[(4S)-4-carboxy-4-[[(4S)-4-carboxy-4-[[2-[2-[2-[[2-[2-[2-[[(4S)-4-carboxy-4-(17-carboxyheptadecanoylamino)butanoyl]amino]ethoxy]ethoxy]acetyl]amino]ethoxy]ethoxy]acetyl]amino]butanoyl]amino]butanoyl]-[Arg12,Leu16,Glu21,Lys24,Leu27,Ser28]-Glucagon] (H-HSQGTFTSDYSRYLDLRRAQEFVK([γGlu-γGlu-AEEA-AEEA-γGlu-C18 diacid])WLLST-OH)",0.095 nM
6,"CC[C@H](C)[C@H](NC(=O)[C@H](CC(N)=O)NC(=O)[C@H](CC(C)C)NC(=O)[C@H](CC(C)C)NC(=O)[C@H](Cc1c[nH]c2ccccc12)NC(=O)[C@H](CCCCNC(=O)CC[C@H](NC(=O)COCCOCCNC(=O)COCCOCCNC(=O)CC[C@H](NC(=O)CCCCCCCCCCCCCCCCC(=O)O)C(=O)O)C(=O)O)NC(=O)[C@@H](NC(=O)[C@H](Cc1ccccc1)NC(=O)[C@H](CC(=O)O)NC(=O)[C@H](CCC(N)=O)NC(=O)[C@H](C)NC(=O)[C@H](CCCNC(=N)N)NC(=O)[C@H](CCCNC(=N)N)NC(=O)[C@@H](NC(=O)[C@H](CC(=O)O)NC(=O)[C@H](CC(C)C)NC(=O)[C@H](Cc1ccc(O)cc1)NC(=O)[C@H](CCCCN)NC(=O)[C@H](CO)NC(=O)[C@H](Cc1ccc(O)cc1)NC(=O)[C@H](CC(=O)O)NC(=O)[C@H](CO)NC(=O)[C@@H](NC(=O)[C@H](Cc1ccccc1)NC(=O)[C@@H](NC(=O)CNC(=O)[C@H](CCC(N)=O)NC(=O)[C@H](CO)NC(=O)[C@@H](N)Cc1c[nH]cn1)[C@@H](C)O)[C@@H](C)O)[C@@H](C)O)C(C)C)C(=O)O [Example 35, N^ε24-[(4S)-4-carboxy-4-[[2-[2-[2-[[2-[2-[2-[[(4S)-4-carboxy-4-(17-carboxyheptadecanoylamino)butanoyl]amino]ethoxy]ethoxy]acetyl]amino]ethoxy]ethoxy]acetyl]amino]butanoyl]-[Thr16,Lys24,Leu27,Ile29]-Glucagon]",0.413 nM

# From patent US9486506B2 (Novo Nordisk A/S, priority 2011, dated 2016)
